For 13 molecules, IC50 results are on record in patent publication US12534452B2, “N-(1H-imidazol-2-yl)benzamide compound and pharmaceutical composition comprising the same as active ingredient” (KAINOS MEDICINE, INC., priority 2019, dated 2026).

Chain of IRAK4 (Q9NWZ3 whole entry): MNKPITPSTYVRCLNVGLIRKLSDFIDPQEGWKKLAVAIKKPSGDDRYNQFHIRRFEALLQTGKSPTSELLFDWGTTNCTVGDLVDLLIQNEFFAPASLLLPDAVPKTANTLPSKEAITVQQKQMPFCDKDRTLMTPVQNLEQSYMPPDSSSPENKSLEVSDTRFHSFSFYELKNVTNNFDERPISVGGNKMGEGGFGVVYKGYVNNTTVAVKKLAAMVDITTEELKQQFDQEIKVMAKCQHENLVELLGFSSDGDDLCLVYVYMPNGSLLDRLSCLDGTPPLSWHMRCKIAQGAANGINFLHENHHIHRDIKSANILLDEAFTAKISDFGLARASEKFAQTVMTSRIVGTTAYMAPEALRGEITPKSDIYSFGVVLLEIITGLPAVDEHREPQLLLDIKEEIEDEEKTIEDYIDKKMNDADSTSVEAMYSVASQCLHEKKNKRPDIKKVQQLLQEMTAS

The target in the assay is IRAK4 (Homo sapiens (Human), UniProt Q9NWZ3). As to the kind of experiment: In vitro IRAK4 phosphorylation activity assay. It counts as biochemical. The conditions noted are these: [γ-33P]-ATP, myelin basic protein substrate, 40 minutes at room temperature; categories. Summed up:
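Radiometric filter-binding assay, no compound–kinase preincubation; 8 mM MOPS pH 7.0, 0.2 mM EDTA, 10 mM Mg acetate, 0.33 mg/mL myelin basic protein substrate, [γ-33P]-ATP. Reaction 40 min at room temperature, stopped with phosphoric acid, scintillation counting; IC50 reported in categories.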
Consider `Cn1cc(-c2cccc(C(=O)Nc3nc(CCCC(=O)N4CCCC[C@@H]4CCO)cn3-c3ccccc3)c2)cn1` [Example 174, (R)—N-(4-(4-(2-(2-hydroxyethyl)piperidin-1-yl)-4-oxobutyl)-1-phenyl-1H-imidazol-2-yl)-3-(1-methyl-1H-pyrazol-4-yl)benzamide], for which the IC50 (commonly the concentration that inhibits the measured activity by half) was below 50 nM. As for `Cn1cc(-c2cccc(C(=O)Nc3nc(CCCCCCN4CCCC4)cn3-c3ccccc3)c2)cn1` [Example 222, 3-(1-methyl-1H-pyrazol-4-yl)-N-(1-phenyl-4-(6-(pyrrolidin-1-yl)hexyl)-1H-imidazol-2-yl)benzamide], the half-inhibitory concentration (IC50) is below 50 nM. `O=C(CCCc1cn(-c2ccccc2)c(NC(=O)c2cccc(-c3cccc4cn[nH]c34)c2)n1)NC1CC1` [Example 248, N-(4-(4-(cyclopropylamino)-4-oxobutyl)-1-phenyl-1H-imidazol-2-yl)-3-(1H-indazol-7-yl)benzamide]: the IC50 is above 100 nM.

As to `O=C(Nc1nc(CCCCCCN2CCOCC2)cn1-c1ccccc1)c1cccc(-c2cn[nH]c2)c1` [Example 123, N-(4-(6-morpholinohexyl)-1-phenyl-1H-imidazol-2-yl)-3-(1H-pyrazol-4-yl)benzamide], the half-maximal inhibitory concentration (IC50) is below 50 nM.

In turn, `COC[C@@H]1CCCN1C(=O)CCCc1cn(-c2ccccc2)c(NC(=O)c2cccc(-c3cn[nH]c3)c2)n1` [Example 55, (S)—N-(4-(4-(2-(methoxymethyl)pyrrolidin-1-yl)-4-oxobutyl)-1-phenyl-1H-imidazol-2-yl)-3-(1H-pyrazol-4-yl)benzamide] yielded a half-inhibitory concentration (IC50) below 50 nM. In turn, `COC(=O)CCCc1cn(-c2ccccc2)c(NC(=O)c2cccc(-c3cn[nH]c3)c2)n1` [Example 58, methyl 4-(2-(3-(1H-pyrazol-4-yl)benzamido)-1-phenyl-1H-imidazol-4-yl)butanoate] gave an IC50 below 50 nM. Regarding `Cn1cc(-c2cccc(C(=O)Nc3nc(CCCCCCN4C(=O)CCC4=O)cn3-c3ccccc3)c2)cn1` [Example 226, N-(4-(6-(2,5-dioxopyrrolidin-1-yl)hexyl)-1-phenyl-1H-imidazol-2-yl)-3-(1-methyl-1H-pyrazol-4-yl)benzamide], the half-inhibitory concentration (IC50) was below 50 nM.

The molecule `Cn1cc(-c2cccc(C(=O)Nc3nc(CCCC(=O)N4CCCC(O)C4)cn3-c3ccccc3)c2)cn1` (stereo not shown) [Example 178, N-(4-(4-(3-hydroxypiperidin-1-yl)-4-oxobutyl)-1-phenyl-1H-imidazol-2-yl)-3-(1-methyl-1H-pyrazol-4-yl)benzamide] had an IC50 below 50 nM. Take `O=C(Nc1nc(CCCCN2CCSCC2)cn1-c1ccccc1)c1cccc(-c2cn[nH]c2)c1` [Example 115, N-(1-phenyl-4-(4-thiomorpholinobutyl)-1H-imidazol-2-yl)-3-(1H-pyrazol-4-yl)benzamide]: the IC50 was below 50 nM. In the case of `Cn1cc(-c2cccc(C(=O)Nc3nc(CCCC(=O)NCC4CCOCC4)cn3-c3ccccc3)c2)cn1` [Example 172, 3-(1-methyl-1H-pyrazol-4-yl)-N-(4-(4-oxo-4-(((tetrahydro-2H-pyran-4-yl)methyl)amino)butyl)-1-phenyl-1H-imidazol-2-yl)benzamide] it was below 50 nM; in that of `CN1CCN(NC(=O)CCc2cn(-c3ccccc3)c(NC(=O)c3cccc(-c4cn[nH]c4)c3)n2)CC1` [Example 9, N-(4-(3-((4-methylpiperazin-1-yl)amino)-3-oxopropyl)-1-phenyl-1H-imidazol-2-yl)-3-(1H-pyrazol-4-yl)benzamide], above 100 nM. On to `C[C@@H]1CCC[C@H](C)N1C(=O)CCCc1cn(-c2ccccc2)c(NC(=O)c2cccc(-c3cn[nH]c3)c2)n1` [Example 63, N-(4-(4-((2R,6S)-2,6-dimethylpiperidin-1-yl)-4-oxobutyl)-1-phenyl-1H-imidazol-2-yl)-3-(1H-pyrazol-4-yl)benzamide], for which the 50% inhibitory concentration (IC50) is below 50 nM. The figure for `O=C(CCCc1cn(-c2ccccc2)c(NC(=O)c2cccc(-c3cnn(CF)c3)c2)n1)NC1CC1` [Example 234, N-(4-(4-(cyclopropylamino)-4-oxobutyl)-1-phenyl-1H-imidazol-2-yl)-3-(1-(fluoromethyl)-1H-pyrazol-4-yl)benzamide] is below 50 nM.
